Results as given in US20240425805A1, “CELL CULTURE METHODS” (INTERNATIONAL N&H DENMARK APS, priority 2021, published 2024).

Tests used:
[1] = system: Bifidobacterium animalis; assay: Growth of B. animalis in MRS media, OD600 plate reader; type: cell-based; conditions: 24 hrs
Protocol: MRS media was inoculated with 1% overnight grown culture of Bifidobacterium animalis. Cells were grown with the addition of 5 mM ATP (Sigma) or 100 nM potato apyrase (ATPase; Sigma catalog #A6535). Experiments were performed in volumes of 200 μl per well in standard microtiter plates. Growth was assessed via Synergy HTX multi-mode plate reader (Bio Tek Instruments) at OD600 every 30 minutes for 24 hrs. Each plate was incubated at 37° C. and shaken once every 30 mins just before the reading.
MRS media was inoculated with 1% over night grown culture of B. animalis. Cells were grown with 100 nM potato apyrase (ATPase) or heat-treated (95° C. for 10 mins) 100 nM potato apyrase. Experiments were performed in volumes of 200 μl per well in standard microtiter plates. Growth was assessed via plate reader at OD600 every 30 minutes.

[2] = system: Akkermansia sp; assay: Effect of ATP and ATPase on growth (OD600), Table 1; type: cell-based; conditions: YCFAC + Mucin media; 5 mM ATP; 37° C. anaerobically, 48 hours
Protocol: (§1) Different growth media were inoculated with 1% over night grown culture of various bacterial and yeast species (as detailed in Table 1). Cells were grown in the presence of 5 mM exogenously-added ATP or 100 nM potato apyrase or bovine alkaline phosphatase (ATPase). Experiments were done in volumes of 200 μl per well in standard microtiter plates. Growth was assessed via plate reader at OD600 every 30 minutes for 48 hours. All the experiments were done at 37° C. anaerobically except for yeast strain Kazachstania unispora where cells were grown aerobically at 28° C.

[3] = system: Kazachstania unispora; assay: as above; type: cell-based; conditions: YM media; 5 mM ATP; aerobically at 28° C., 48 hours
Protocol: as §1

[4] = system: Bifidobacterium animalis; assay: as above; type: cell-based; conditions: MRS media; 5 mM ATP; 37° C. anaerobically, 48 hours
Protocol: as §1

[5] = system: Lactobacillus crispatus; assay: as above; type: cell-based; conditions: MRS media; 5 mM ATP; 37° C. anaerobically, 48 hours
Protocol: as §1

[6] = system: Bifidobacterium lactis; assay: as above; type: cell-based; conditions: MRS media; 5 mM ATP; 37° C. anaerobically, 48 hours
Protocol: as §1

[7] = system: Prevotella copri; assay: as above; type: cell-based; conditions: TSA media; 5 mM ATP; 37° C. anaerobically, 48 hours
Protocol: as §1

[8] = system: Bacillus amyloliquefaciens; assay: as above; type: cell-based; conditions: TSA media; 5 mM ATP; 37° C. anaerobically, 48 hours
Protocol: as §1

[9] = system: Bifidobacterium longum; assay: as above; type: cell-based; conditions: BHI media; 5 mM ATP; 37° C. anaerobically, 48 hours
Protocol: as §1

[10] = system: Lactobacillus rhamnosus; assay: as above; type: cell-based; conditions: 5 mM ATP, 37° C. anaerobically, 48 hours
Protocol: as §1

[11] = system: Bifidobacterium Infantis; assay: as above; type: cell-based; conditions: MRS media; 5 mM ATP; 37° C. anaerobically, 48 hours
Protocol: as §1

[12] = system: Oscillibacter sp; assay: as above; type: cell-based; conditions: YCFAC media; 5 mM ATP; 37° C. anaerobically, 48 hours
Protocol: as §1

[13] = system: CHO wild-type cell line; assay: CHO cell growth in suspension, trypan blue cell count; type: cell-based, Chinese hamster; conditions: for increase in CHO cell numbers: 10 nM ATPase, after 60 hrs of growth in suspension
Text: (§2) The growth effect of exogenously added ATPase enzymes was examined on established mammalian (Chinese hamster ovary (CHO)) cell lines. CHO wild-type cell line was purchased from Creative Biogene (NY, USA) Cat No. CSC-C3064, and CHO cell line constitutively expressing Green Fluorescent Protein (CHO-GFP) was purchased from GenTarget, Inc (San Diego, CA, USA) Cat No. SC039-Puro. Wild type CHO cell line was maintained in CD OptiCHO™ (ThermoFisher) medium for growth in suspension. GFP expressing CHO cell line was maintained in RPMI 1640 media (ThermoFisher) for adherent growth. Cell lines were cultured in a humidified incubation chamber at 37° C. with 5% CO2.
To measure the effect on CHO cells in suspension, cultures were seeded onto the wells of 6-well plates at 1×10^4 cells per well and incubated for 12 hours. Subsequently, ATPase (potato apyrase or bacterial enzyme CRC22110 (SEQ ID NO:1)) were added to the wells at 10 nM final concentration and incubated for an additional 48 hours. The potato apyrase (Cat No. A6410) and, was sourced from Sigma. The recombinant CRC22110 (SEQ ID NO: 1) enzyme was purified from Bacillus cultures using chromatography methods known in the art. After a total of 60 hours in culture, cells were detached by trypsin treatment, stained with trypan blue and counted in a Countess 3 FL system (Invitrogen). Data on FIG. 4 show the effect of ATPase on CHO cell growth.

[14] = system: CHO-GFP cell line; assay: GFP expression of CHO-GFP cell line in adherent culture, fluorescence imaging; type: cell-based, Chinese hamster; conditions: 10 nM ATPase; imaged after 60 hrs
Text: as §2
To study the effect of exogenous ATPase on recombinant protein expression by mammalian cells, the CHO-GFP cell line was used. CHO-GFP cells were seeded onto the wells of 6-well plates at 1×10^4 cells per well and incubated for 12 hours. Subsequently, ATPase (potato Apyrase or bacterial enzyme CRC22110) were added to the wells at 10 nM final concentration and cells were incubated for an additional 48 hours For GFP expression visualization, cells were imaged after 60 hrs of incubation with ATPase by using Invitrogen™ EVOS™ FL Imaging System. […] The number of cells displaying fluorescence signal and the amount of fluorescence are both increased in the cultures grown with exogenous ATPases, potato apyrase or CRC22110.

[15] = system: B. animalis subsp. lactis 420; assay: eATP in culture supernatants, Luciferase Reporter Assay; type: cell-based; conditions: 100 nM potato apyrase; MRS, 37° C. anaerobic; 0, 7 and 13 hr
Protocol: MRS media was inoculated with 1% overnight grown culture of B. animalis subsp. lactis 420. Cells were grown at 37° C. under anaerobic conditions with and without potato apyrase. Potato apyrase was used at 100 nM. 200 μl of the sample was collected at different time points. Cells were harvested by centrifugation at 5000 rpm for 5 mins. Supernatants were used to estimate nanomolar ATP using a Luciferase® Reporter Assay System (Promega).
ATP measurements were performed on supernatants collected at 0, 7 and 13 hr time points.

Nc1ncnc2c1ncn2[C@@H]1O[C@H](COP(=O)(O)OP(=O)(O)OP(=O)(O)O)[C@@H](O)[C@H]1O [ATP, Adenosine triphosphate]
cellular growth (OD600) ([1]; 5 mM exogenously added ATP, 37° C.): supressed | Sensitivity to ATP [2]: YES | Sensitivity to ATP [3]: YES | Sensitivity to ATP [4]: YES | Sensitivity to ATP [5]: YES | Sensitivity to ATP [6]: YES | Sensitivity to ATP [7]: YES | Sensitivity to ATP [8]: YES | Sensitivity to ATP [9]: YES | Sensitivity to ATP ([10]; BHI media): YES | Sensitivity to ATP ([10]; MRS media): YES | Sensitivity to ATP [11]: YES | Sensitivity to ATP [12]: YES

B1: CRC22110: recombinant bacterial enzyme CRC22110 (SEQ ID NO:1), Gallaecimonas xiamenensis 3-C-1, purified from Bacillus cultures (protein, listed as Gallaecimonas xiamenensis)
chain: ADKPACRAVFDAGSSGTRLFLYVQQEGGWQPWPGAKLGALADPVRQHQGPKAMAALAADLANSLEALRQDGPTNSEGQPRWQGFDWQQACRLQSVSVLATAGMRLAEQQDPVASVALWQEVQQALAGLLGPAVAIDARTLTGFEEGFYAWLAARARLGRSDMGIVEMGGASSQVAFPCPACDRADDAVQQVRLEGQTLDFYSYSFLGLGQDEAPKVLGVPHACRYGAGVKDPNWQLGQCQAQLPLTLGRALKDPYNFQGQGQGGYRQVPTEKAGVKDWLLTGAFQYNTPDQLDSCCLNQGQCYQPSTACFRVAYLPLYLDSLGVDPHSPDLDVSWTLGAVLCRNEQCLAPSKPPCRWRKAGCLAPSVGDGRPEGRPGQQPGGVQHRQH
increase in CHO cell numbers [13]: 3 fold | amount of fluorescence (GFP) [14]: increased | number of cells displaying fluorescence signal (GFP) [14]: increased

B2: potato apyrase: potato apyrase (ATPase; Sigma), EC 3.6.1.5; SEQ ID NO: 3, predicted mature SEQ ID NO: 4 (protein, listed as Solanum tuberosum)
chain: KNVNAQIPLRRHLLSHESEHYAVIFDAGSTGSRVHVFRFDEKLGLLPIGNNIEYFMATEPGLSSYAEDPKAAANSLEPLLDGAEGVVPQELQSETPLELGATAGLRMLKGDAAEKILQAVRNLVKNQSTFHSKDQWVTILDGTQEGSYMWAAINYLLGNLGKDYKSTTATIDLGGGSVQMAYAISNEQFAKAPQNEDGEPYVQQKHLMSKDYNLYVHSYLNYGQLAGRAEIFKASRNESNPCALEGCDGYYSYGGVDYKVKAPKKGSSWKRCRRLTRHALKINAKCNIEECTFNGVWNGGGGDGQKNIHASSFFYDIGAQVGIVDTKFPSALAKPIQYLNAAKVACQTNVADIKSIFPKTQDRNIPYLCMDLIYEYTLLVDGFGLNPHKEITVIHDVQYKNYLVGAAWPLGCAIDLVSSTTNKIRVASS
increase in CHO cell numbers [13]: 3 fold | number of viable cells in culture (trypan blue exclusion) ([13]; 10 nM potato apyrase, 60 hours in culture): improves the number of viable cells in culture | growth (OD600) versus cells-only control ([1]; 100 nM potato apyrase alone): grew better than the cells-only control | growth (OD600) in the presence of exogenously-added ATP ([1]; 100 nM potato apyrase plus 5 mM ATP): negated the growth inhibitory effect of exogenously-added ATP | amount of fluorescence (GFP) [14]: increased | number of cells displaying fluorescence signal (GFP) [14]: increased | ATP accumulation in culture supernatant [15]: did not exhibit ATP accumulation | nanomolar ATP over time in culture supernatant [15]: decrease
